Results taken from publication PMC11032351, “Epigenetic modulation through BET bromodomain inhibitors as a novel therapeutic strategy for progranulin-deficient frontotemporal dementia” (Scientific Reports, 2024).

Tests used:
lysosomal genes = test: RNA sequencing of human dermal fibroblasts, lysosomal genes; assay type: cell-based; conditions: 24 h
Experimental: Non-immortalized HDF cells (UCSF Memory and Aging Center, FTD25(X)) were cultured in high glucose DMEM with 10% FBS with supplemented L-glutamine and Pen/Strep, and grown in 100 mm plates for treatment. Cells were treated with DMSO or 1 μM mivebresib (1% DMSO) for 24 h. Trizol (Invitrogen) was used to isolate total cellular RNA, according to the manufacturer's protocol. RNA concentrations were assessed using a NanoDrop spectrophotometer (Thermo Scientific) and samples were diluted to 100 ng/10 μL in nuclease-free water (Ambion). 5 μg of each RNA sample was submitted for processing. Gene set enrichment analysis for lysosomal genes (list from Sardiello et al. 2009, Table S1) was performed using GSEA Desktop v3.0, with the following input parameters: number of permutations: 1000, scoring scheme: weighted, normalization mode: […], ranking metric: Signal2Noise, sorting: real[42]-[44]. […] Input queried against “Literature” library.

PGRN protein levels [1] = test: PGRN quantification (Jess) in GRN R493X/+ NPCs; assay type: cell-based, human; conditions: 24 h
Experimental: (§1) PGRN capillary gel electrophoresis experiments were performed using Jess (Bio-Techne) and data were processed and analyzed using Compass for Simple Western software (version 6.0). Runs were conducted using EZ Standard Pack 1 12–230 kDa (Bio-Techne PS-ST01EZ-8), 12–230 kDa pre-filled plates (PS-PP03), 12–230 kDa separation module (SMW004), anti-rabbit HRP detection (DM-001), RePlex (RP-001), and total protein detection modules (DM-TP01, biotin labeling reagent 042-973) according to the manufacturer’s instructions, and with anti-PGRN primary (Abcam ab208777) diluted 1:50 in milk-free antibody dilution buffer (043–524). The following run settings were used for each experiment: separation time: 25 min, separation voltage: 375 V, RePlex purge time: 30 min, biotin labeling time: 30 min, antibody diluent time: 5 min, primary antibody time: 30 min, secondary antibody time: 30 min, total protein HRP time: 30 min. All intensity quantifications are normalized to the total protein assay quantification unless otherwise indicated.
(§2) For GRN^R493^X/+ NPCs, cells were grown to confluency in 6-well plates according to the above NPC culturing procedure. To each well was directly added 2 µL of 100 µM panobinostat, […], or DMSO only to produce final in-well concentrations of 100 nM or 1 µM, respectively (0.1% DMSO final concentration). […]

PGRN protein levels [2] = test: PGRN quantification (Jess) in GRN R493X/+ 14-day differentiated neurons; assay type: cell-based, human; conditions: GRN R493X/+ 14-day growth factor differentiated neurons, 24 h
Experimental: as §1, §2

BRD4 protein levels = test: Immunoblotting of BRD4 in human NPCs; assay type: cell-based; conditions: co-treatment with MLN-4924 (1 µM) and mivebresib (1 µM)
Experimental: Gels were then transferred onto PVDF membranes (Immobilon-P, Millipore IPVH00010). […] Membranes were washed with TBST for 1 h, and developed with the chemiluminescence reagents used above.
NPCs were cultured normally in 6-well plates as described previously. […] Plates returned to the incubator. […] Plates returned to the incubator. After 4 h, to the indicated wells is directly added 1 µL 2 mM mivebresib (MedChem Express HY-100015) in DMSO for a final concentration of 1 µM, or 1 µL DMSO. All plates were returned to the incubator overnight. […] 200 µL of supernatant was then transferred to a fresh, labeled Eppendorf rube, which was then stored at − 20 °C prior to further analysis. Sample concentration was quantified using the BCA assay as described above, and normalized to 250 µg/mL in M-PER lysis buffer prior to PGRN quantification using the Jess.

## CCS(=O)(=O)Nc1ccc(Oc2ccc(F)cc2F)c(-c2cn(C)c(=O)c3[nH]ccc23)c1 [mivebresib]
Lysosomal genes; 1 µM, pre-defined list of lysosomal genes
  lysosomal genes significantly upregulated: 68/89
Lysosomal genes; gene ABCA2, 1 µM, vs DMSO
  Log2(fold-change) ABCA2: 0.969
Lysosomal genes; gene ABCB9, 1 µM, vs DMSO
  Log2(fold-change) ABCB9: 0.753
Lysosomal genes; gene ACP2, 1 µM, vs DMSO
  Log2(fold-change) ACP2: 0.071
Lysosomal genes; gene ACP5, 1 µM, vs DMSO
  Log2(fold-change) ACP5: 1.631
Lysosomal genes; gene AGA, 1 µM, vs DMSO
  Log2(fold-change) AGA: 1.111
Lysosomal genes; gene ARSA, 1 µM, vs DMSO
  Log2(fold-change) ARSA: 0.958
Lysosomal genes; gene ARSB, 1 µM, vs DMSO
  Log2(fold-change) ARSB: 0.697
Lysosomal genes; gene ARSG, 1 µM, vs DMSO
  Log2(fold-change) ARSG: 0.426
Lysosomal genes; gene ASAH1, 1 µM, vs DMSO
  Log2(fold-change) ASAH1: 1.724
Lysosomal genes; gene CD63, 1 µM, vs DMSO
  Log2(fold-change) CD63: 0.465
Lysosomal genes; gene CD68, 1 µM, vs DMSO
  Log2(fold-change) CD68: 0.237
Lysosomal genes; gene CLCN7, 1 µM, vs DMSO
  Log2(fold-change) CLCN7: 1.349
Lysosomal genes; gene CLN3, 1 µM, vs DMSO
  Log2(fold-change) CLN3: -0.112
Lysosomal genes; gene CLN5, 1 µM, vs DMSO
  Log2(fold-change) CLN5: 0.974
Lysosomal genes; gene CPVL, 1 µM, vs DMSO
  Log2(fold-change) CPVL: 4.550
Lysosomal genes; gene CREG1, 1 µM, vs DMSO
  Log2(fold-change) CREG1: 1.959
Lysosomal genes; gene CTBS, 1 µM, vs DMSO
  Log2(fold-change) CTBS: -0.006
Lysosomal genes; gene CTNS, 1 µM, vs DMSO
  Log2(fold-change) CTNS: 1.077
Lysosomal genes; gene CTSA, 1 µM, vs DMSO
  Log2(fold-change) CTSA: 1.344
Lysosomal genes; gene CTSB, 1 µM, vs DMSO
  Log2(fold-change) CTSB: 0.947
Lysosomal genes; gene CTSC, 1 µM, vs DMSO
  Log2(fold-change) CTSC: 0.179
Lysosomal genes; gene CTSD, 1 µM, vs DMSO
  Log2(fold-change) CTSD: 1.383
Lysosomal genes; gene CTSF, 1 µM, vs DMSO
  Log2(fold-change) CTSF: 1.580
Lysosomal genes; gene CTSH, 1 µM, vs DMSO
  Log2(fold-change) CTSH: 2.652
Lysosomal genes; gene CTSK, 1 µM, vs DMSO
  Log2(fold-change) CTSK: 2.602
Lysosomal genes; gene CTSS, 1 µM, vs DMSO
  Log2(fold-change) CTSS: 1.574
Lysosomal genes; gene CTSZ, 1 µM, vs DMSO
  Log2(fold-change) CTSZ: 0.095
Lysosomal genes; gene DNASE2, 1 µM, vs DMSO
  Log2(fold-change) DNASE2: 0.759
Lysosomal genes; gene ENTPD4, 1 µM, vs DMSO
  Log2(fold-change) ENTPD4: -0.066
Lysosomal genes; gene EPDR1, 1 µM, vs DMSO
  Log2(fold-change) EPDR1: 0.350
Lysosomal genes; gene FUCA1, 1 µM, vs DMSO
  Log2(fold-change) FUCA1: 2.294
Lysosomal genes; gene GAA, 1 µM, vs DMSO
  Log2(fold-change) GAA: 1.285
Lysosomal genes; gene GALC, 1 µM, vs DMSO
  Log2(fold-change) GALC: 0.272
Lysosomal genes; gene GALNS, 1 µM, vs DMSO
  Log2(fold-change) GALNS: 0.664
Lysosomal genes; gene GBA, 1 µM, vs DMSO
  Log2(fold-change) GBA: 0.975
Lysosomal genes; gene GGH, 1 µM, vs DMSO
  Log2(fold-change) GGH: -0.787
Lysosomal genes; gene GLA, 1 µM, vs DMSO
  Log2(fold-change) GLA: 0.381
Lysosomal genes; gene GLB1, 1 µM, vs DMSO
  Log2(fold-change) GLB1: 0.633
Lysosomal genes; gene GM2A, 1 µM, vs DMSO
  Log2(fold-change) GM2A: 0.722
Lysosomal genes; gene GNS, 1 µM, vs DMSO
  Log2(fold-change) GNS: 1.166
Lysosomal genes; gene GUSB, 1 µM, vs DMSO
  Log2(fold-change) GUSB: -0.134
Lysosomal genes; gene HEXA, 1 µM, vs DMSO
  Log2(fold-change) HEXA: 1.135
Lysosomal genes; gene HEXB, 1 µM, vs DMSO
  Log2(fold-change) HEXB: 1.117
Lysosomal genes; gene HGSNAT, 1 µM, vs DMSO
  Log2(fold-change) HGSNAT: 0.896
Lysosomal genes; gene HPSE, 1 µM, vs DMSO
  Log2(fold-change) HPSE: 1.426
Lysosomal genes; gene HYAL1, 1 µM, vs DMSO
  Log2(fold-change) HYAL1: 0.217
Lysosomal genes; gene HYAL2, 1 µM, vs DMSO
  Log2(fold-change) HYAL2: -0.168
Lysosomal genes; gene IDS, 1 µM, vs DMSO
  Log2(fold-change) IDS: 1.156
Lysosomal genes; gene IDUA, 1 µM, vs DMSO
  Log2(fold-change) IDUA: 1.057
Lysosomal genes; gene IFI30, 1 µM, vs DMSO
  Log2(fold-change) IFI30: 1.145
Lysosomal genes; gene LAMP1, 1 µM, vs DMSO
  Log2(fold-change) LAMP1: 1.227
Lysosomal genes; gene LAMP2, 1 µM, vs DMSO
  Log2(fold-change) LAMP2: 1.082
Lysosomal genes; gene LAPTM4A, 1 µM, vs DMSO
  Log2(fold-change) LAPTM4A: 0.460
Lysosomal genes; gene LAPTM5, 1 µM, vs DMSO
  Log2(fold-change) LAPTM5: 0.199
Lysosomal genes; gene LGMN, 1 µM, vs DMSO
  Log2(fold-change) LGMN: 1.455
Lysosomal genes; gene LIPA, 1 µM, vs DMSO
  Log2(fold-change) LIPA: 0.574
Lysosomal genes; gene LITAF, 1 µM, vs DMSO
  Log2(fold-change) LITAF: 1.022
Lysosomal genes; gene LMBRD1, 1 µM, vs DMSO
  Log2(fold-change) LMBRD1: 0.119
Lysosomal genes; gene MAN2B1, 1 µM, vs DMSO
  Log2(fold-change) MAN2B1: 0.586
Lysosomal genes; gene MAN2B2, 1 µM, vs DMSO
  Log2(fold-change) MAN2B2: 0.870
Lysosomal genes; gene MANBA, 1 µM, vs DMSO
  Log2(fold-change) MANBA: 1.687
Lysosomal genes; gene MCOLN1, 1 µM, vs DMSO
  Log2(fold-change) MCOLN1: 2.564
Lysosomal genes; gene MFSD8, 1 µM, vs DMSO
  Log2(fold-change) MFSD8: -0.317
Lysosomal genes; gene MPO, 1 µM, vs DMSO
  Log2(fold-change) MPO: 1.298
Lysosomal genes; gene NAAA, 1 µM, vs DMSO
  Log2(fold-change) NAAA: 0.334
Lysosomal genes; gene NAGA, 1 µM, vs DMSO
  Log2(fold-change) NAGA: 0.034
Lysosomal genes; gene NAGLU, 1 µM, vs DMSO
  Log2(fold-change) NAGLU: 0.982
Lysosomal genes; gene NCSTN, 1 µM, vs DMSO
  Log2(fold-change) NCSTN: 0.166
Lysosomal genes; gene NEU1, 1 µM, vs DMSO
  Log2(fold-change) NEU1: 2.366
Lysosomal genes; gene NEU4, 1 µM, vs DMSO
  Log2(fold-change) NEU4: 1.289
Lysosomal genes; gene NPC1, 1 µM, vs DMSO
  Log2(fold-change) NPC1: 1.530
Lysosomal genes; gene NPC2, 1 µM, vs DMSO
  Log2(fold-change) NPC2: 1.822
Lysosomal genes; gene OSTM1, 1 µM, vs DMSO
  Log2(fold-change) OSTM1: 1.559
Lysosomal genes; gene PCYOX1, 1 µM, vs DMSO
  Log2(fold-change) PCYOX1: 0.963
Lysosomal genes; gene PPT1, 1 µM, vs DMSO
  Log2(fold-change) PPT1: -0.819
Lysosomal genes; gene PPT2, 1 µM, vs DMSO
  Log2(fold-change) PPT2: -0.987
Lysosomal genes; gene PSAP, 1 µM, vs DMSO
  Log2(fold-change) PSAP: 1.511
Lysosomal genes; gene RNASET2, 1 µM, vs DMSO
  Log2(fold-change) RNASET2: 1.008
Lysosomal genes; gene SCARB2, 1 µM, vs DMSO
  Log2(fold-change) SCARB2: 0.201
Lysosomal genes; gene SCPEP1, 1 µM, vs DMSO
  Log2(fold-change) SCPEP1: 1.441
Lysosomal genes; gene SGSH, 1 µM, vs DMSO
  Log2(fold-change) SGSH: 0.983
Lysosomal genes; gene SIAE, 1 µM, vs DMSO
  Log2(fold-change) SIAE: 0.365
Lysosomal genes; gene SLC17A5, 1 µM, vs DMSO
  Log2(fold-change) SLC17A5: 1.220
Lysosomal genes; gene SLC36A1, 1 µM, vs DMSO
  Log2(fold-change) SLC36A1: 0.968
Lysosomal genes; gene SMPD1, 1 µM, vs DMSO
  Log2(fold-change) SMPD1: 0.723
Lysosomal genes; gene TMEM74, 1 µM, vs DMSO
  Log2(fold-change) TMEM74: 2.173
Lysosomal genes; gene TMEM92, 1 µM, vs DMSO
  Log2(fold-change) TMEM92: -1.444
Lysosomal genes; gene TPP1, 1 µM, vs DMSO
  Log2(fold-change) TPP1: 1.361
PGRN protein levels [1]
  PGRN protein levels: significantly increased PGRN protein levels
PGRN protein levels [2]
  PGRN protein levels: significantly increased PGRN protein levels
BRD4 protein levels
  enhancement of BRD4 protein levels: ~ fourfold
